Data published in patent publication US8084644B2, “Iminopropene compound and use thereof” (Sumitomo Chemical Company, Limited, priority 2005, dated 2011).

Tested on: Haemaphysalis longicornis
Test: Test Example 11: filter paper bag contact test on ticks
Format: in vivo
Details: 48 h, 0.5 mg test compound on 5 cm×10 cm filter paper, after 2 days
Experimental: 0.5 mg of the test compound was dissolved to […]. Onto one side of filter paper having 5 cm×10 cm, the solution was applied uniformly and then air-dried. Thereafter, the filter paper was folded in half and fixed by paper clips at the side to form bag like shape. Ten Haemaphysalis longicornis was put into the bag, and then the bag was closed with a paper clip. After 2 days, the number of dead insects was examined.

SMILES	mortality at 0.5 mg/filter paper [%]
Brc1ccc(N=C(C=COc2ccccc2)Oc2ccccc2)cc1 [(77), Phenyl N-(4-bromophenyl)-3-(phenoxy)acrylimidate]	100
Fc1cccc(N=C(C=CSc2ccccc2)Oc2ccccc2)c1 [(51), Phenyl N-(3-fluorophenyl)-3-(phenylthio)acrylimidate]	100
Fc1ccc(SC=CC(=Nc2ccccc2)SC2CCCCC2)cc1 [(469), Cyclohexyl 3-(4-fluorophenylthio)-N-(phenyl)thioacrylimidate]	100
Cc1ccc(N=C(C=CSc2ccccc2F)SCC(C)C)cc1 [(428), Isobutyl 3-(2-fluorophenylthio)-N-(4-methylphenyl)thioacrylimidate]	100
Cc1ccc(N=C(C=CSc2ccc(Cl)cc2)SC2CCCCC2)cc1 [(472), Cyclohexyl 3-(4-chlorophenylthio)-N-(4-methylphenyl)thioacrylimidate]	100
C(=CC(=Nc1ccccc1)Oc1ccccc1)Sc1ccccc1 [(37), Phenyl N-phenyl-3-(phenylthio)acrylimidate]	100
Cc1ccc(N=C(C=CSc2ccccc2F)SCC2CCCCC2)cc1 [(341), Cyclohexylmethyl 3-(2-fluorophenylthio)-N-(4-methylphenyl)-thioacrylimidate]	100
Cc1ccc(N=C(C=CSc2ccccc2)SCC(C)C)cc1 [(321), 2-Methylpropyl N-(4-methylphenyl)-3-(phenylthio)thioacrylimidate]	100
Clc1ccc(SC(C=CSc2ccccc2)=Nc2ccccc2)cc1 [(2), 4-Chlorophenyl N-phenyl-3-(phenylthio)thioacrylimidate]	100
CC(C)c1ccccc1SC=CC(=Nc1ccccc1)Oc1ccccc1 [(122), Phenyl 3-[2-(1-methylethyl)phenylthio]-N-phenylacrylimidate]	100
CCC(C)SC(C=CSc1ccccc1)=Nc1ccc(C)cc1 (stereo not drawn) [(324), 1-Methylpropyl N-(4-methylphenyl)-3-(phenylthio)thioacrylimidate]	100
FC(F)(F)c1ccc(N=C(C=CSc2ccccc2)Oc2ccccc2)cc1 [(52), Phenyl N-(4-trifluoromethylphenyl)-3-(phenylthio)acrylimidate]	100
Cc1ccc(N=C(C=CSc2ccccc2)SC2CCCC2)cc1 [(333), Cyclopentyl N-(4-methylphenyl)-3-(phenylthio)thioacrylimidate]	100
Cc1ccc(N=C(C=CSc2ccccc2)Sc2ccccc2)cc1 [(28), Phenyl N-(4-methylphenyl)-3-phenylthiothioacrylimidate]	100
CCCCSC(C=CSc1ccc(F)cc1)=Nc1ccc(C)cc1 [(474), Butyl 3-(4-fluorophenylthio)-N-(4-methylphenyl)thioacrylimidate]	100
Fc1ccc(N=C(C=CSc2ccccc2)Oc2ccccc2)cc1 [(50), Phenyl N-(4-fluorophenyl)-3-(phenylthio)acrylimidate]	100
Cc1ccc(SC=CC(=Nc2ccccc2)Oc2ccccc2)c(C)c1 [(119), Phenyl 3-(2,4-dimethylphenylthio)-N-phenylacrylimidate]	100
COc1ccc(SC(C=CSc2ccccc2)=Nc2ccccc2)cc1 [(26), 4-Methoxyphenyl N-phenyl-3-(phenylthio)thioacrylimidate]	100
Cc1cc(C)cc(SC=CC(=Nc2ccccc2)Oc2ccccc2)c1 [(121), Phenyl 3-(3,5-dimethylphenylthio)-N-phenylacrylimidate]	100
CCSC(C=CSc1ccccc1)=Nc1ccc(C)cc1 [(266), Ethyl N-(4-methylphenyl)-3-(phenylthio)thioacrylimidate]	100
FC(F)(F)Oc1ccc(N=C(C=COc2ccccc2)Oc2ccccc2)cc1 [(207), Phenyl N-(4-trifluoromethoxyphenyl)-3-phenoxyacrylimidate]	100
Cc1cccc(SC=CC(=Nc2ccccc2)Oc2ccccc2)c1 [(106), Phenyl 3-(3-methylphenylthio)-N-phenylacrylimidate]	100
Cc1ccc(N=C(C=CSc2ccccc2)SC(C)(C)C)cc1 [(265), 1,1-Dimethylethyl N-(4-methylphenyl)-3-(phenylthio)thioacrylimidate]	100
CCC(C)OC(C=CSc1ccc(F)cc1)=Nc1ccc(C)cc1 (stereo not drawn) [(513), 1-Methylpropyl 3-(4-fluorophenylthio)-N-(4-methylphenyl)acrylimidate]	100
Clc1ccccc1SC(C=CSc1ccccc1)=Nc1ccccc1 [(4), 2-Chlorophenyl N-phenyl-3-(phenylthio)thioacrylimidate]	100
Fc1ccc(N=C(C=CSc2ccccc2)Sc2ccc(F)cc2)cc1 [(278), 4-Fluorophenyl N-(4-fluorophenyl)-3-(phenylthio)thioacrylimidate]	100

SMILES	mortality at 0.5 mg/filter paper [%]
Cc1ccc(N=C(C=CSc2ccc(Cl)cc2)SCC(C)C)cc1 [(435), Isobutyl 3-(4-chlorophenylthio)-N-(4-methylphenyl)thioacrylimidate]	100
Fc1cccc(SC=CC(=Nc2ccccc2)Oc2ccccc2)c1 [(113), Phenyl 3-(3-fluorophenylthio)-N-phenylacrylimidate]	100
FC(F)(F)c1cccc(SC=CC(=Nc2ccccc2)Oc2ccccc2)c1 [(111), Phenyl N-phenyl-3-(3-trifluoromethylphenylthio)acrylimidate]	100
Cc1ccc(N=C(C=CSc2cccc(F)c2)SCC(C)C)cc1 [(429), Isobutyl 3-(3-fluorophenylthio)-N-(4-methylphenyl)thioacrylimidate]	100
Cc1ccc(N=C(C=CSc2cccc(Cl)c2)SCC(C)C)cc1 [(434), Isobutyl 3-(3-chlorophenylthio)-N-(4-methylphenyl)thioacrylimidate]	100
CCCCSC(C=CSc1ccc(Cl)cc1)=Nc1ccc(C)cc1 [(475), Butyl 3-(4-chlorophenylthio)-N-(4-methylphenyl)thioacrylimidate]	100
Cc1ccc(N=C(C=CSc2ccccc2)SC2CCCCC2)cc1 [(470), Cyclohexyl N-(4-methylphenyl)-3-(phenylthio)thioacrylimidate]	100
COc1ccc(SC=CC(=Nc2ccccc2)Oc2ccccc2)cc1 [(146), Phenyl 3-(4-methoxyphenylthio)-N-phenylacrylimidate]	100
Fc1ccc(SC=CC(=Nc2ccccc2)Oc2ccccc2)cc1 [(103), Phenyl 3-(4-fluorophenylthio)-N-phenylacrylimidate]	100
COc1ccc(SC=CC(=Nc2ccc(C)cc2)SCC(C)C)cc1 [(447), Isobutyl 3-(4-methoxyphenylthio)-N-(4-methylphenyl)thioacrylimidate]	100
Cc1ccc(N=C(C=CSc2ccc(C)cc2)SCC(C)C)cc1 [(443), Isobutyl N-(4-methylphenyl)-3-(4-methylphenylthio)thioacrylimidate]	100
Cc1ccc(N=C(C=CSc2ccc(F)cc2)SC2CCCCC2)cc1 [(471), Cyclohexyl 3-(4-fluorophenylthio)-N-(4-methylphenyl)thioacrylimidate]	100
Fc1ccc(N=C(C=CSc2ccccc2)Sc2ccccc2)cc1 [(264), Phenyl N-(4-fluorophenyl)-3-(phenylthio)thioacrylimidate]	100
CCCCSC(C=CSc1ccccc1)=Nc1ccc(C)cc1 [(284), Butyl N-(4-methylphenyl)-3-(phenylthio)thioacrylimidate]	100
C(=CC(=Nc1ccccc1)Sc1ccccc1)Oc1ccccc1 [(35), Phenyl N-phenyl-3-(phenoxy)thioacrylimidate]	100
CC(C)c1ccc(N=C(C=CSc2ccccc2)Oc2ccc(N)cc2)cc1 [(188), 4-Aminophenyl N-[4-(1-methylethyl)phenyl]-3-(phenylthio)acrylimidate]	100
C=CCSC(C=CSc1ccccc1)=Nc1ccccc1 [(186), 2-Propenyl N-phenyl-3-(phenylthio)thioacrylimidate]	100
FC(F)(F)c1ccc(SC=CC(=Nc2ccccc2)Oc2ccccc2)cc1 [(123), Phenyl N-phenyl-3-(4-trifluoromethylphenylthio)acrylimidate]	100
Cc1ccc(N=C(C=CSc2ccccc2C)SCC(C)C)cc1 [(441), Isobutyl N-(4-methylphenyl)-3-(2-methylphenylthio)thioacrylimidate]	100
Cc1ccc(SC=CC(=Nc2ccccc2)Oc2ccccc2)cc1 [(118), Phenyl 3-(4-methylphenylthio)-N-phenylacrylimidate]	100
Cc1ccc(OC(C=CSc2ccccc2)=Nc2ccc(C(C)C)cc2)cc1 [(88), 4-Methylphenyl N-[4-(1-methylethyl)phenyl]-3-(phenylthio)acrylimidate]	100
Cc1ccc(C)c(SC=CC(=Nc2ccccc2)Oc2ccccc2)c1 [(120), Phenyl 3-(2,5-dimethylphenylthio)-N-phenylacrylimidate]	100
Cc1ccc(N=C(C=CSc2ccccc2Cl)SCC(C)C)cc1 [(433), Isobutyl 3-(2-chlorophenylthio)-N-(4-methylphenyl)thioacrylimidate]	100
Brc1cccc(SC=CC(=Nc2ccccc2)Oc2ccccc2)c1 [(101), Phenyl 3-(3-bromophenylthio)-N-phenylacrylimidate]	100
Clc1cccc(SC(C=CSc2ccccc2)=Nc2ccccc2)c1 [(3), 3-Chlorophenyl N-phenyl-3-(phenylthio)thioacrylimidate]	100
